Results reported in the supplement of paper PMC6045584.
± gives the standard deviation of the averaged measurements.

What was measured:
BEZ-235 = compound: Cn1c(=O)n(-c2ccc(C(C)(C)C#N)cc2)c2c3cc(-c4cnc5ccccc5c4)ccc3ncc21 [BEZ-235]; experiment: surviving fraction relative to DMSO-only wells; higher = less growth inhibition; conditions: exposure time: 5 days
Procedure, shortened: (§1)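 Surviving fraction is CellTiter-Glo luminescence divided by the median of wells given DMSO only. For this, log-phase tumour cell lines went into 384-well plates at 250–500 cells per well and, 24 hours later, into five days of continuous inhibitor exposure at 0.5, 1, 5, 10, 50, 100, 500 and 1000 nM. Lines were screened three times and retained only if replicate Pearson r >0.7 and median Z' >0.3.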

BMN-673 = compound: Cn1ncnc1[C@H]1c2n[nH]c(=O)c3cc(F)cc(c23)N[C@@H]1c1ccc(F)cc1 [BMN-673]; experiment: as above; conditions: exposure time: 5 days
Procedure, shortened: as §1

| Test System | surviving fraction (BEZ-235; 0.5 nM) | surviving fraction (BEZ-235; 1 nM) | surviving fraction (BEZ-235; 5 nM) | surviving fraction (BEZ-235; 10 nM) | surviving fraction (BEZ-235; 50 nM) | surviving fraction (BEZ-235; 100 nM) | surviving fraction (BEZ-235; 500 nM) | surviving fraction (BEZ-235; 1000 nM) | surviving fraction (BMN-673; 0.5 nM) | surviving fraction (BMN-673; 1 nM) | surviving fraction (BMN-673; 5 nM) | surviving fraction (BMN-673; 10 nM) | surviving fraction (BMN-673; 50 nM) | surviving fraction (BMN-673; 100 nM) | surviving fraction (BMN-673; 500 nM) | surviving fraction (BMN-673; 1000 nM) |
| --- | --- | --- | --- | --- | --- | --- | --- | --- | --- | --- | --- | --- | --- | --- | --- | --- |
| SG27 HEADNECK | 0.989 ± 0.032 | 1.06 ± 0.041 | 0.888 ± 0.063 | 1.04 ± 0.049 | 0.91 ± 0.084 | 0.908 ± 0.065 | 0.717 ± 0.061 | 0.611 ± 0.04 | 1.15 ± 0.04 | 1.08 ± 0.11 | 1.06 ± 0.046 | 0.978 ± 0.12 | 1.02 ± 0.17 | 0.927 ± 0.12 | 0.917 ± 0.038 | 0.877 ± 0.16 |
| SG28 HEADNECK | 1.13 ± 0.053 | 1.09 ± 0.085 | 0.945 ± 0.2 | 0.965 ± 0.063 | 0.762 ± 0.053 | 0.632 ± 0.087 | 0.459 ± 0.039 | 0.342 ± 0.032 | 1.09 ± 0.14 | 1.064 ± 0.0085 | 1.12 ± 0.13 | 1.06 ± 0.012 | 1.01 ± 0.12 | 0.996 ± 0.065 | 1.01 ± 0.15 | 1.01 ± 0.074 |
| SG31 HEADNECK | 1.1 ± 0.15 | 1.138 ± 0.0095 | 0.946 ± 0.091 | 1.02 ± 0.15 | 0.602 ± 0.088 | 0.569 ± 0.042 | 0.354 ± 0.029 | 0.289 ± 0.028 | 1.18 ± 0.14 | 1.12 ± 0.028 | 1.08 ± 0.24 | 0.911 ± 0.15 | 0.969 ± 0.046 | 0.787 ± 0.09 | 0.916 ± 0.064 | 0.751 ± 0.046 |
| SG32 HEADNECK | 1.1 ± 0.18 | 1.03 ± 0.1 | 1.42 ± 0.26 | 1.25 ± 0.13 | 0.861 ± 0.061 | 0.497 ± 0.083 | 0.255 ± 0.013 | 0.176 ± 0.026 | 1.13 ± 0.067 | 0.975 ± 0.17 | 1.08 ± 0.29 | 0.985 ± 0.094 | 0.872 ± 0.12 | 1.22 ± 0.82 | 0.622 ± 0.0068 | 0.49 ± 0.044 |
| SG43 HEADNECK | 0.984 ± 0.18 | 1.23 ± 0.35 | 0.946 ± 0.1 | 0.956 ± 0.048 | 0.763 ± 0.12 | 0.77 ± 0.11 | 0.555 ± 0.037 | 0.36 ± 0.036 | 1.19 ± 0.23 | 0.909 ± 0.061 | 0.694 ± 0.044 | 0.678 ± 0.046 | 0.74 ± 0.093 | 0.703 ± 0.089 | 0.678 ± 0.091 | 0.785 ± 0.056 |
| SIHA CERVIX | 1.08 ± 0.1 | 1.14 ± 0.099 | 1.07 ± 0.044 | 1.03 ± 0.046 | 0.642 ± 0.064 | 0.485 ± 0.029 | 0.237 ± 0.008 | 0.222 ± 0.016 | 1.01 ± 0.055 | 1.03 ± 0.053 | 1.15 ± 0.062 | 1.05 ± 0.013 | 0.929 ± 0.038 | 0.784 ± 0.13 | 0.602 ± 0.035 | 0.454 ± 0.041 |
| SJSA1 BONE | 1.07 ± 0.064 | 1.04 ± 0.05 | 1.035 ± 0.004 | 1.02 ± 0.098 | 0.803 ± 0.031 | 0.623 ± 0.013 | 0.249 ± 0.015 | 0.206 ± 0.012 | 1.67 ± 0.078 | 1.72 ± 0.018 | 1.72 ± 0.12 | 1.86 ± 0.1 | 0.969 ± 0.054 | 1.27 ± 0.022 | 1.46 ± 0.06 | 1.12 ± 0.031 |
| SKBR3 BREAST | 1.07 ± 0.18 | 0.925 ± 0.035 | 0.88 ± 0.046 | 1.07 ± 0.018 | 0.786 ± 0.097 | 0.564 ± 0.039 | 0.141 ± 0.014 | 0.116 ± 0.0092 | 1.154 ± 0.0069 | 1.11 ± 0.12 | 0.863 ± 0.15 | 0.881 ± 0.044 | 0.774 ± 0.075 | 0.575 ± 0.078 | 0.492 ± 0.041 | 0.481 ± 0.014 |
| SNU475 LIVER | 1.03 ± 0.038 | 1 ± 0.07 | 0.921 ± 0.036 | 0.932 ± 0.039 | 0.423 ± 0.018 | 0.285 ± 0.0051 | 0.137 ± 0.015 | 0.148 ± 0.0081 | 1.02 ± 0.034 | 1.01 ± 0.097 | 0.763 ± 0.47 | 0.99 ± 0.032 | 0.882 ± 0.087 | 0.851 ± 0.031 | 0.643 ± 0.025 | 0.508 ± 0.051 |
| SUM44 BREAST | 1.03 ± 0.046 | 1.02 ± 0.067 | 1.04 ± 0.025 | 0.972 ± 0.021 | 0.724 ± 0.026 | 0.422 ± 0.072 | 0.104 ± 0.0081 | 0.099 ± 0.017 | 1.16 ± 0.29 | 1.02 ± 0.16 | 0.976 ± 0.12 | 0.798 ± 0.029 | 1.03 ± 0.21 | 0.98 ± 0.15 | 1.09 ± 0.2 | 0.988 ± 0.11 |
